From PubChem BioAssay (NCI)
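Method: 48-hour compound exposure of cells in 96-well plates, five concentrations, linear interpolation of endpoints. TGI denotes the concentration required for complete inhibition of growth.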

Columns and labels:
Assay in all cases: inhibition of tumour cell growth, NCI panel, 48 h
786-0 renal = system: 786-0 renal
A549 NSCLC = system: A549 NSCLC
ACHN renal = system: ACHN renal
CCRF-CEM leukemia = system: CCRF-CEM leukemia
DLD-1 colon = system: DLD-1 colon
EKVX NSCLC = system: EKVX NSCLC
HCC-2998 colon = system: HCC-2998 colon
HCT-116 colon = system: HCT-116 colon
HCT-15 colon = system: HCT-15 colon
HL-60(TB) leukemia = system: HL-60(TB) leukemia
HOP-62 NSCLC = system: HOP-62 NSCLC
HOP-92 NSCLC = system: HOP-92 NSCLC
HT29 colon = system: HT29 colon
IGROV1 ovarian = system: IGROV1 ovarian
K-562 leukemia = system: K-562 leukemia
KM12 colon = system: KM12 colon
KM20L2 colon = system: KM20L2 colon
LOX IMVI melanoma = system: LOX IMVI melanoma
LXFL 529 NSCLC = system: LXFL 529 NSCLC
M14 melanoma = system: M14 melanoma
M19-MEL melanoma = system: M19-MEL melanoma
MALME-3M melanoma = system: MALME-3M melanoma
MOLT-4 leukemia = system: MOLT-4 leukemia
NCI-H23 lung = system: NCI-H23 lung
NCI-H460 lung = system: NCI-H460 lung
NCI-H522 lung = system: NCI-H522 lung
OVCAR-3 ovarian = system: OVCAR-3 ovarian
OVCAR-4 ovarian = system: OVCAR-4 ovarian
OVCAR-5 ovarian = system: OVCAR-5 ovarian
OVCAR-8 ovarian = system: OVCAR-8 ovarian
RXF 393 renal = system: RXF 393 renal
SF-295 CNS = system: SF-295 CNS
SF-539 CNS = system: SF-539 CNS
SK-MEL-2 melanoma = system: SK-MEL-2 melanoma
SK-MEL-28 melanoma = system: SK-MEL-28 melanoma
SK-MEL-5 melanoma = system: SK-MEL-5 melanoma
SK-OV-3 ovarian = system: SK-OV-3 ovarian
SN12C renal = system: SN12C renal
SNB-75 CNS = system: SNB-75 CNS
SNB-78 CNS = system: SNB-78 CNS
SR leukemia = system: SR leukemia
SW-620 colon = system: SW-620 colon
TK-10 renal = system: TK-10 renal
U251 CNS = system: U251 CNS
UACC-257 melanoma = system: UACC-257 melanoma
UACC-62 melanoma = system: UACC-62 melanoma
UO-31 renal = system: UO-31 renal
XF 498 CNS = system: XF 498 CNS

For `O=S1(=O)CC#CC[C@@H](CO)[C@@H](CO)CC#CC1`, the TGI (786-0 renal) was > 100 µM, the TGI (A549 NSCLC) was > 100 µM and the TGI (ACHN renal) was > 100 µM. For the same compound, the TGI (CCRF-CEM leukemia) was 98.1 µM, the TGI (DLD-1 colon) was > 100 µM and the TGI (EKVX NSCLC) was > 100 µM. For the same compound, the TGI (HCC-2998 colon) was > 100 µM, the TGI (HCT-116 colon) was > 100 µM and the TGI (HCT-15 colon) was > 100 µM. For the same compound, the TGI (HL-60(TB) leukemia) was > 100 µM, the TGI (HOP-62 NSCLC) was > 100 µM and the TGI (HOP-92 NSCLC) was 90.3 µM. The TGI (HT29 colon) was > 100 µM, the TGI (IGROV1 ovarian) was > 100 µM and the TGI (K-562 leukemia) was > 100 µM. The TGI (KM12 colon) was > 100 µM, the TGI (KM20L2 colon) was > 100 µM and the TGI (LOX IMVI melanoma) was > 100 µM. The TGI (LXFL 529 NSCLC) was > 100 µM, the TGI (M14 melanoma) was > 100 µM and the TGI (M19-MEL melanoma) was > 100 µM. For the same compound, the TGI (MALME-3M melanoma) was 68.2 µM, the TGI (MOLT-4 leukemia) was > 100 µM and the TGI (NCI-H23 lung) was > 100 µM. For the same compound, the TGI (NCI-H460 lung) was > 100 µM, the TGI (NCI-H522 lung) was 32.6 µM and the TGI (OVCAR-3 ovarian) was > 100 µM. The TGI (OVCAR-4 ovarian) was > 100 µM, the TGI (OVCAR-5 ovarian) was > 100 µM and the TGI (OVCAR-8 ovarian) was > 100 µM. The TGI (RXF 393 renal) was > 100 µM, the TGI (SF-295 CNS) was > 100 µM and the TGI (SF-539 CNS) was > 100 µM. The TGI (SK-MEL-2 melanoma) was > 100 µM, the TGI (SK-MEL-28 melanoma) was > 100 µM and the TGI (SK-MEL-5 melanoma) was > 100 µM. For the same compound, the TGI (SK-OV-3 ovarian) was > 100 µM, the TGI (SN12C renal) was > 100 µM and the TGI (SNB-75 CNS) was > 100 µM. The TGI (SNB-78 CNS) was > 100 µM, the TGI (SR leukemia) was > 100 µM and the TGI (SW-620 colon) was > 100 µM. For the same compound, the TGI (TK-10 renal) was > 100 µM, the TGI (U251 CNS) was > 100 µM and the TGI (UACC-257 melanoma) was > 100 µM. For the same compound, the TGI (UACC-62 melanoma) was > 100 µM, the TGI (UO-31 renal) was > 100 µM and the TGI (XF 498 CNS) was > 100 µM.
